Results published in patent US7820707B2, “Heterocyclic derivatives” (N.V. Organon, priority 2006, dated 2010).

Target: T1, AMPA (GluR1) receptor (Homo sapiens, UniProt P42261)
T1 construct: expressed in transfected cells; host or cells: HEK cells (HEK.GluR1(i), kept under hygromycin selection)
Assay: Ca2+ influx assay (FLEXstation, Fluo-3) for positive modulation of the AMPA (GluR1) receptor in HEK.GluR1(i) cells
Format: cell-based
Details: glutamate +/- test compound, Ca2+ response with fluo3-AM
Text: The compounds in this invention may be tested using a biological assay which measures Ca^2+ influx mediated through positive modulation of the AMPA (GluR1) receptor using standard techniques in the art such as, but not limited to, a FLEXstation (manufactured by Molecular Devices, Sunnyvale, Calif.). An optical readout using fluorescent probes is employed to measure ion channel dependent changes in intracellular ion concentration or membrane potential. The assay utilises the Ca^2+ conductance of functional homomeric GluR1(i) AMPA receptors to generate glutamate-dependent Ca^2+ responses. Influx of Ca^2+ through the ion channel is measured indirectly through an increase in intracellular Ca^2+ levels using the calcium sensitive dye such as, but not limited to, Fluo-3 (Molecular Devices, Sunnyvale, Calif.) in FLEXstation. A positive AMPA receptor modulator, in the presence of glutamate, will result in an influx of Ca^2+ through the ion channel which can be measured indirectly through an increase in intracellular Ca^2+ levels using the calcium sensitive dye Fluo-3 in FLEXstation.
HEK.GluR1(i) cells were maintained in DMEM supplemented with 10% fetaclone II, 1% non-essential amino acids and 150 μg/mL hygromycin, at 37° C./5% CO2. […]

T1 sequence (P42261 19-906 isoform P42261-2 limits assumed, species assumed): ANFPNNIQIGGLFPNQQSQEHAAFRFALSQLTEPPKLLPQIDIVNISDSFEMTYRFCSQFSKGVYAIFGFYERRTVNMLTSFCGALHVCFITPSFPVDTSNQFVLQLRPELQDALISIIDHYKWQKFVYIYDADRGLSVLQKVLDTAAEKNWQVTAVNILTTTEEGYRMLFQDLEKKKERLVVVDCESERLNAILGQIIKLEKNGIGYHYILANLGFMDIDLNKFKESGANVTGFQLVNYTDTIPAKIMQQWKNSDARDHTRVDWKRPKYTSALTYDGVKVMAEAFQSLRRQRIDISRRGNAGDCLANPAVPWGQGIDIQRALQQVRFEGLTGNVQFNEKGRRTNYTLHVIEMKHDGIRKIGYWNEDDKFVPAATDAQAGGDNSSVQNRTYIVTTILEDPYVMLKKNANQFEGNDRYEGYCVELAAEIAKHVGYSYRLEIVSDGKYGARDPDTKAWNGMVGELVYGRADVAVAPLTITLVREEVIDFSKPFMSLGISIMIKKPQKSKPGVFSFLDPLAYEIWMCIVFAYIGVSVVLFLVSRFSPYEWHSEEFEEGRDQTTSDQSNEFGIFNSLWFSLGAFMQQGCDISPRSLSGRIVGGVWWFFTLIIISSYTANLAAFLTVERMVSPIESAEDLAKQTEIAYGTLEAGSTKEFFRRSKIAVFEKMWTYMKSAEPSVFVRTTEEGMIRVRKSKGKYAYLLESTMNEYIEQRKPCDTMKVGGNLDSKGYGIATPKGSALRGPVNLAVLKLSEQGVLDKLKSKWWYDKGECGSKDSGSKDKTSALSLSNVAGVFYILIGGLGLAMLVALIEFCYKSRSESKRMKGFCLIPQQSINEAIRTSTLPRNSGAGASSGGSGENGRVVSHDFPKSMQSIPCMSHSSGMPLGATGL

- EC50: 2.2 µM
SMILES: CC(O)c1cn(CC(=O)Nc2sc3c(c2C(N)=O)CCCC3)nc1C(F)(F)F (stereo not shown) [Example 67, 2-(2-(4-(1-hydroxyethyl)-3-(trifluoromethyl)-1H-pyrazol-1-yl)acetamido)-4,5,6,7-tetrahydrobenzo[b]thiophene-3-carboxamide]
